In patent US20230118642A1, “METHOD FOR TREATING THERAPY-RESISTANT MUC4+ CANCER” (CONSEJO NACIONAL DE INVESTIGACIONES CIENTÍFICAS Y TÉCNICAS, priority 2020, published 2023):

Tests used:
[1] = system: HCC70 triple-negative breast cancer cell line; test: HCC70 cell viability, CellTiter Glo 2.0; assay type: cell-based; conditions: 72 h
Procedure: (§1) FIG. 25(A-C) INB03 enhances sorafenib inhibition in cell proliferation of colon, gastric and triple-negative breast cancer cells. Cell proliferation was evaluated in the HT-29 colon cancer (FIG. 25A), SNU-1 gastric cancer (FIG. 25B) and in the in the HCC-70 triple-negative breast cancer cell lines (FIG. 25C). Cells were treated with vehicle (DMSO 0.1%), sorafenib (Soraf), or INB03 (10 μg/ml), alone or in different combinations for 72 h. (FIGS. 25A and B) HT-29 and SNU-1 cell proliferation was evaluated by cell count Countess automatic cell count. (FIG. 25C) HCC70 cell viability was analyzed by CellTiter Glo 2.0 assay.
FIG. 26 INB03 enhances cediranib inhibition in cell viability of HCC70 triple-negative breast cancer cells. Cell viability was evaluated in the HCC70 cell line. Cells were treated with vehicle (DMSO 0.1%), cediranib (cedir), or INB03 (10 μg/ml), alone or in different combinations for 72 h. Cell viability was analyzed by CellTiter Glo 2.0 assay.

[2] = system: MDA-MB-468 cell line; test: MDA-MB-468 cell viability, CellTiter Glo 2.0; assay type: cell-based; conditions: Homo sapiens, 72 h, read-out: decrease of MDA-MB-468 cell viability
Procedure: FIG. 24 INB03 enhances erlotinib inhibition in cell viability of MDA-MB 468 triple-negative breast cancer cells. Cell viability was evaluated in the MDA-MB-468 cell line. Cells were treated with vehicle (DMSO 0.1%), erlotinib (erlot), or INB03 (10 μg/ml), alone or in different combinations for 72 h.

[3] = system: JIMT-1-shMUC4 cells; test: JIMT-1-shMUC4 cell proliferation with lapatinib and TNFα blockade, cell count at 72 h; assay type: cell-based
Procedure: (§2) Then, to study the participation of MUC4 in lapatinib resistance, we transduced the trastuzumab-resistant JIMT-1 cell line with a plasmid encoding a doxycycline (Dox)-inducible shRNA targeting MUC4, and obtained JIMT-1-shMUC4 cells.
(§3) FIG. 18 TNFα blockade sensitizes lapatinib-resistant cells in vitro. Cell proliferation was evaluated in JIMT-1 and JIMT-1-shMUC4 cell lines by cell count at 72 h of treatment. Cells were treated with immunoglobulin G (IgG 5 μg/ml), lapatinib (Lap 1 μM), etanercept (E 5 μg/ml), or INB03 (DN; 10 μg/ml), alone or in different combinations. FIG. 18A. JIMT-1 wild type. FIGS. 18B and 18C JIMT-1-shMUC4 and in C cells were treated with Dox 10 μg/ml for 10 days before and during the experiment to assure MUC4 downregulation.

[4] = system: SNU-1 gastric cancer cell line; test: SNU-1 cell proliferation, Countess automatic cell count; assay type: cell-based; conditions: 72 h
Procedure: In order to extend our findings of the role of INB03 in increasing lapatinib inhibitory effect on HER2+ breast cancer cell proliferation to other tumor types, we used both drugs in the ovarian cancer SK-OV-3 cells and in the gastric SNU-1 cells. Both cell lines express HER2 and MUC4.
FIG. 22(A-B) INB03 enhances lapatinib inhibition in cell proliferation of ovarian and gastric cancer cell. Cell proliferation was evaluated in the SK-OV-3 ovarian cancer cell line (FIG. 22A) and in the SNU-1 gastric cancer cell line. Cells were treated with vehicle (DMSO 0.1%), lapatinib (Lap), or NB03 (10 μg/ml), alone or in different combinations for 72 h. (FIG. 22A) SK-OV-3 cells viability was analyzed by CellTiter Glo 2.0 assay. (FIG. 22B) SNU-1 cell proliferation was evaluated by cell count Countess automatic cell count.
as §1

[5] = system: HER2+ breast cancer; conditions: patients with trastuzumab-resistant disease; cited from earlier work
[6] = system: JIMT-1-shMUC4 cells; test: JIMT-1-shMUC4 migration with lapatinib and TNF-blocking agents; assay type: cell-based
Procedure: (§4) Again, lapatinib is used in the metastatic setting (infra). The metastatic cascade is a multistep process that involves migration and invasion of tumor cells that pass through the basement membrane and extracellular matrix, the intravasation to the lymphatic or vascular circulation, the extravasation and the attachment of a new location to generate a secondary tumor. The migration ability of JIMT-1 treated with lapatinib and TNF-blocking agents was evaluated. […] To study MUC4 contribution on the inhibition of migration observed by simultaneous treatment of TNF-blocking drugs and lapatinib, the JIMT-1 cell line was transduced with a plasmid encoding a doxycycline-inducible shRNA targeting MUC4, and JIMT-1-shMUC4 cells were obtained (FIGS. 16 B and C).

[7] = system: SK-OV-3 ovarian cancer cell line; test: SK-OV-3 cell viability, CellTiter Glo 2.0; assay type: cell-based; conditions: lapatinib 2.5 μM alone, 72 h
Procedure: Cells were treated with vehicle (DMSO 0.1%), lapatinib (Lap), or NB03 (10 μg/ml), alone or in different combinations for 72 h. (FIG. 22A) SK-OV-3 cells viability was analyzed by CellTiter Glo 2.0 assay. […] Data was analyzed by one-way ANOVA coupled with a Tukey's post hoc test. The data as shown represents mean SEM. *p<0.05, **p<0.01.

[8] = stated without test; cited from earlier work
[9] = system: JIMT-1; test: JIMT-1 migration with lapatinib and TNF-blocking agents; assay type: cell-based
Procedure: as §4

[10] = system: HT-29 colon cancer cells; test: HT-29 cell proliferation, Countess automatic cell count; assay type: cell-based; conditions: 72 h
Procedure: as §1

[11] = system: JIMT-1 cell line; test: JIMT-1 cell proliferation with lapatinib and TNFα blockade, cell count at 72 h; assay type: cell-based; conditions: TNFα blocker simultaneously with lapatinib 1 μM, E 5 μg/ml, INB03 10 μg/ml
Procedure: as §2, §3

[12] = system: JIMT-1 cell line; test: JIMT-1 cell proliferation, [3H]-thymidine incorporation; assay type: cell-based; conditions: 48 h treatment, 18 h pulse; T 10 μg/ml, P 10 μg/ml, E 5 μg/ml, DN 2 μg/ml; vs IgG
Procedure: A strategy of implementing a TNFα blockade was employed, either with Etanercept (E) or the dominant negative protein XPRO1595 (DN) in JIMT-1, de novo T and T+P resistant cell line which produces TNFα. JIMT-1 tumors were established in female nude mice to explore whether TNFα blockade overcomes T+P resistance. Animals were treated with 5 mg/kg of IgG, P, T+P, 10 mg/kg of DN or P+T+DN i.p. twice a week. […] Proliferation of cells treated with IgG, T, P, DN, E (10 μg/ml, 10 μg/ml, 10 μg/ml, 2 μg/ml and 5 μg/ml respectively) as monotherapy and in different combinations was evaluated by cell count or [3H]-thymidine incorporation. The combination of TNFα blockade with T+P inhibited cell proliferation vs. IgG, P+T, P+E, P+DN (p<0.0001).
Cell proliferation in JIMT-1 cell line was evaluated by ^3[H]-thymidine incorporation assay at 48 h of treatment with 18 h pulse (See Rivas M A, et al., Exp Cell Res 2008; 314:509-29, the contents of which are hereby incorporated by reference). […] The data as shown in FIG. 3 represents mean±standard deviation *p<0.05, **p<0.01, ***p<0.001 vs. IgG.

## COc1cc2c(Oc3ccc4[nH]c(C)cc4c3F)ncnc2cc1OCCCN1CCCC1 [cediranib]
[1]; Homo sapiens, HCC70, cediranib 2.5 μM alone, read-out: effect on HCC70 cell viability
  cytotoxicity at 2.5 µM: 20%
[1]; Homo sapiens, HCC70, cediranib 5 μM alone, read-out: effect on HCC70 cell viability
  cytotoxicity at 5 µM: 46%

## C#Cc1cccc(Nc2ncnc3cc(OCCOC)c(OCCOC)cc23)c1 [erlotinib]
[2]; erlotinib 1.25 μM alone
  cytotoxicity at 1.25 µM: 27%
[2]; erlotinib 2.5 μM alone
  cytotoxicity at 2.5 µM: 38%
[2]; erlotinib 5 μM alone
  cytotoxicity at 5 µM: 48%

## CS(=O)(=O)CCNCc1ccc(-c2ccc3ncnc(Nc4ccc(OCc5cccc(F)c5)c(Cl)c4)c3c2)o1 [lapatinib]
[3]; JIMT-1-shMUC4 with Dox 10 μg/ml (MUC4 silenced), lapatinib
  cell proliferation: decrease in JIMT-1 cells proliferation
[4]; lapatinib 1 μM alone
  effect on proliferation of SNU-1 cells: no effect
[5]
  patients with clinical benefit: < 30%
[6]; JIMT-1-shMUC4 with doxycycline (MUC4 silenced), lapatinib
  cell migration: decrease in JIMT-1 cells migration
[7]
  effect on viability of SK-OV-3 cells: no effect
[8]
  crossing of the blood-brain-barrier: cross the blood-brain-barrier
[9]; each drug alone
  JIMT-1 migration: no effect

## CNC(=O)c1cc(Oc2ccc(NC(=O)Nc3ccc(Cl)c(C(F)(F)F)c3)cc2)ccn1 [sorafenib]
[10]; sorafenib 2.5 μM alone
  effect on HT-29 cell proliferation: no inhibitory effect
[10]; sorafenib 10 μM alone
  reduction of HT-29 proliferation: 62%
[4]; sorafenib 1.5 μM alone
  effect on SNU-1 proliferation: did not affect its proliferation
[4]; sorafenib 3 μM alone
  decrease of SNU-1 cell proliferation: 38%
[1]; Homo sapiens, HCC70, sorafenib 1.5 μM alone, read-out: HCC70 viability reduction
  cytotoxicity at 1.5 µM: 44%
[1]; sorafenib 1 μM alone
  effect on HCC70 viability: no effect

## etanercept
[3]; JIMT-1-shMUC4 with Dox, TNFα blocker added to lapatinib
  cell proliferation: did not further induce a decrease in cell proliferation
[6]; JIMT-1-shMUC4 with doxycycline, TNF blocker added to lapatinib
  cell migration: did not further induce a decrease in cell migration
[6]; JIMT-1shMUC4 without doxycycline, TNF blocker with lapatinib
  cell migration: decreased their migration
[11]
  JIMT-1 cell proliferation: reduces JIMT-1 cell proliferation
[9]; TNF blocker together with lapatinib
  JIMT-1 migration: impairs JIMT-1 migration
[9]; each drug alone
  JIMT-1 migration: no effect

## pertuzumab: monoclonal antibody that disrupts HER2/HER3 dimerization
[12]
  cell proliferation in JIMT-1 cell line: negligible, if any, impact
